Measured values: ChEMBL document CHEMBL1765075, “Discovery and structure-activity relationship of 3-aminopyrid-2-ones as potent and selective interleukin-2 inducible T-cell kinase (Itk) inhibitors” (J Med Chem, 2011)

Tests used:
[1] = biological target: Serine/threonine-protein kinase TBK1 (Homo sapiens, UniProt Q9UHD2); assay: Inhibition of TBK1
[2] = biological target: Mitogen-activated protein kinase kinase kinase 8 (Homo sapiens, UniProt P41279); assay: Inhibition of COT
[3] = biological target: Macrophage-stimulating protein receptor (Homo sapiens, UniProt Q04912); assay: Inhibition of RON
[4] = biological target: Serine/threonine-protein kinase Sgk1 (Homo sapiens, UniProt O00141); assay: Inhibition of SGK1
Serine/threonine-protein kinase Sgk1, sequence (O00141 whole entry): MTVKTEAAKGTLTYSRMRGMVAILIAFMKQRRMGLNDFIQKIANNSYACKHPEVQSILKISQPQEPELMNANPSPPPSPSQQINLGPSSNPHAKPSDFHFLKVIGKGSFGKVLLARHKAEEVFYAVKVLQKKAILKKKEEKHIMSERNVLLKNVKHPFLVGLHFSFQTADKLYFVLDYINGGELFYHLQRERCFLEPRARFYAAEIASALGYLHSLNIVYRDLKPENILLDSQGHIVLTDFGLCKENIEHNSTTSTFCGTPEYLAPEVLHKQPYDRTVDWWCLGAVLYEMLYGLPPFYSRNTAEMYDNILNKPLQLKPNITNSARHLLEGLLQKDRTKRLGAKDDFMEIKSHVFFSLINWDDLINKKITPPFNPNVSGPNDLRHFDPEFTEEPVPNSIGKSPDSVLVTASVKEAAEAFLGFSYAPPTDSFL

Aurora kinase A = Aurora kinase A (Homo sapiens, UniProt O14965); assay: Inhibition of AURORA A
[5] = biological target: Platelet-derived growth factor receptor alpha (Homo sapiens, UniProt P16234); assay: Inhibition of PDGFRalpha
[6] = Permeability across basolateral to apical side of human Caco2 cells after 120 mins by LC-MS/MS analysis; format: ADME, cell-based; conditions: Caco-2, read-out: permeability
[7] = biological target: Receptor tyrosine-protein kinase erbB-4 (Homo sapiens, UniProt Q15303); assay: Inhibition of ERBB4
[8] = biological target: Serine/threonine-protein kinase Nek1 (Homo sapiens, UniProt Q96PY6); assay: Inhibition of NEK1
[9] = biological target: Insulin-like growth factor 1 receptor (Homo sapiens, UniProt P08069); assay: Inhibition of IGF1R
[10] = biological target: Dual specificity mitogen-activated protein kinase kinase 1 (Homo sapiens, UniProt Q02750); assay: Inhibition of MEK1
[11] = Inhibition of RLK
Angiopoietin-1 receptor = Angiopoietin-1 receptor (Homo sapiens, UniProt Q02763); assay: Inhibition of TIE2
[12] = biological target: Protein kinase C theta type (Homo sapiens, UniProt Q04759); assay: Inhibition of PKCtheta
[13] = biological target: Serine/threonine-protein kinase Chk1 (Homo sapiens, UniProt O14757); assay: Inhibition of CHEK1
[14] = biological target: Mitogen-activated protein kinase 1 (Homo sapiens, UniProt P28482); assay: Inhibition of ERK2
[15] = biological target: Inhibitor of nuclear factor kappa-B kinase subunit alpha (Homo sapiens, UniProt O15111); assay: Inhibition of IKKalpha
[16] = biological target: Serine/threonine-protein kinase N2 (Homo sapiens, UniProt Q16513); assay: Inhibition of PRK2
Serine/threonine-protein kinase N2, sequence (Q16513 whole entry): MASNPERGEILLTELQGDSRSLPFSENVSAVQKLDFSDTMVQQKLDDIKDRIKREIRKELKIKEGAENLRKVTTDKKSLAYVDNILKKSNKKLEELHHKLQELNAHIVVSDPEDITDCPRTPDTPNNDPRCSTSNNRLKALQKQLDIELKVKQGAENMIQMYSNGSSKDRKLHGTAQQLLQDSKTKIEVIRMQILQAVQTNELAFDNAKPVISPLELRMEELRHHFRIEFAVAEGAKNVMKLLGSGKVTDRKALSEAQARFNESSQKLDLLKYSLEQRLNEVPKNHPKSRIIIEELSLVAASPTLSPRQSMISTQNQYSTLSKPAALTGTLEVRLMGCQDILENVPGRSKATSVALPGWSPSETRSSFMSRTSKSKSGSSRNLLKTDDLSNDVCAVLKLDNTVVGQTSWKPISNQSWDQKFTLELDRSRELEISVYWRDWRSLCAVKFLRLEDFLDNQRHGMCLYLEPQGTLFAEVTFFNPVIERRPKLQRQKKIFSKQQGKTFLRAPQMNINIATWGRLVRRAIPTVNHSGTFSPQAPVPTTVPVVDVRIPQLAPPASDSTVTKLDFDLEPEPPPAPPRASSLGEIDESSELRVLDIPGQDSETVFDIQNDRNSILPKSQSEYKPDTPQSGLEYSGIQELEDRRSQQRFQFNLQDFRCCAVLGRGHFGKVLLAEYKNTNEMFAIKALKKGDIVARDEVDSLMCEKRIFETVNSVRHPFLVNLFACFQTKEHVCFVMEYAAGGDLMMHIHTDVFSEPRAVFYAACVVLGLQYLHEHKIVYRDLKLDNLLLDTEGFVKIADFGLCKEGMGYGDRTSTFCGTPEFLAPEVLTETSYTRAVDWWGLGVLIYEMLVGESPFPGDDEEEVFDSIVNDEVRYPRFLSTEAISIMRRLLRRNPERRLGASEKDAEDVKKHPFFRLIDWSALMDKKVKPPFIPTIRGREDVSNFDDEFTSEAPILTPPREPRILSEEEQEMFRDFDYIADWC

[17] = biological target: Mitogen-activated protein kinase 11 (Homo sapiens, UniProt Q15759); assay: Inhibition of P38beta
[18] = biological target: Macrophage colony-stimulating factor 1 receptor (Homo sapiens, UniProt P07333); assay: Inhibition of FMS
Macrophage colony-stimulating factor 1 receptor, sequence (P07333 whole entry, looked up): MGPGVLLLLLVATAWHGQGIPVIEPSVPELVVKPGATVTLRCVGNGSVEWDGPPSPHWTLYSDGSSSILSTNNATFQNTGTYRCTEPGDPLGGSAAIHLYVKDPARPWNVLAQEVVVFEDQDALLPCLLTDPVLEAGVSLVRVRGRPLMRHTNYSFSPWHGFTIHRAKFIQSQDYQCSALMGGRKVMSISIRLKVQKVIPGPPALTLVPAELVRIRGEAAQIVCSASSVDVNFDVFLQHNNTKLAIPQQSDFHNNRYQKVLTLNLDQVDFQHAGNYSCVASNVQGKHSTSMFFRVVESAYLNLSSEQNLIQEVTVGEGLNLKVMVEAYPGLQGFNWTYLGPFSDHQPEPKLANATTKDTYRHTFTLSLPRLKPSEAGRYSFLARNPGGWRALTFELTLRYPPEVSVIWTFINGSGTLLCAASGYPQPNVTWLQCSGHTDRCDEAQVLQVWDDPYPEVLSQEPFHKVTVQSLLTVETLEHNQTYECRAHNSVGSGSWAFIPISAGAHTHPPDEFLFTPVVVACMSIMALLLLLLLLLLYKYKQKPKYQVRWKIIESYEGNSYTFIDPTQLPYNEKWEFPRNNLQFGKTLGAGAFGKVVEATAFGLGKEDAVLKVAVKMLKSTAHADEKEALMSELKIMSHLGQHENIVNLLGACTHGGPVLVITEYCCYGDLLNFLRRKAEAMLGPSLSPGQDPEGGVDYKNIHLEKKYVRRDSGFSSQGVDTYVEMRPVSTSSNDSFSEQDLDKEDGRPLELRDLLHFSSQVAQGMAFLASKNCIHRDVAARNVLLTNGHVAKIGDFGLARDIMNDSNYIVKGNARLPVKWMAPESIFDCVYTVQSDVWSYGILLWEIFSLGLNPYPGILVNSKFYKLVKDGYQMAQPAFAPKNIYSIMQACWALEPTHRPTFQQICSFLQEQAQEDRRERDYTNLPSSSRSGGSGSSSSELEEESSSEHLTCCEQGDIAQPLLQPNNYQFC

[19] = biological target: Indoleamine 2,3-dioxygenase 1 (Homo sapiens, UniProt P14902); assay: Inhibition of IDO1
[20] = biological target: Proto-oncogene tyrosine-protein kinase receptor Ret (Homo sapiens, UniProt P07949); assay: Inhibition of RET
[21] = biological target: Calcium/calmodulin-dependent protein kinase type IV (Homo sapiens, UniProt Q16566); assay: Inhibition of CAMK4
[22] = biological target: Tyrosine-protein kinase Fes/Fps (Homo sapiens, UniProt P07332); assay: Inhibition of FES
[23] = Inhibition of PDK
[24] = biological target: T1, Receptor-type tyrosine-protein kinase FLT3 (Homo sapiens, UniProt P36888); assay: Inhibition of FLT3
T1 sequence (P36888 whole entry): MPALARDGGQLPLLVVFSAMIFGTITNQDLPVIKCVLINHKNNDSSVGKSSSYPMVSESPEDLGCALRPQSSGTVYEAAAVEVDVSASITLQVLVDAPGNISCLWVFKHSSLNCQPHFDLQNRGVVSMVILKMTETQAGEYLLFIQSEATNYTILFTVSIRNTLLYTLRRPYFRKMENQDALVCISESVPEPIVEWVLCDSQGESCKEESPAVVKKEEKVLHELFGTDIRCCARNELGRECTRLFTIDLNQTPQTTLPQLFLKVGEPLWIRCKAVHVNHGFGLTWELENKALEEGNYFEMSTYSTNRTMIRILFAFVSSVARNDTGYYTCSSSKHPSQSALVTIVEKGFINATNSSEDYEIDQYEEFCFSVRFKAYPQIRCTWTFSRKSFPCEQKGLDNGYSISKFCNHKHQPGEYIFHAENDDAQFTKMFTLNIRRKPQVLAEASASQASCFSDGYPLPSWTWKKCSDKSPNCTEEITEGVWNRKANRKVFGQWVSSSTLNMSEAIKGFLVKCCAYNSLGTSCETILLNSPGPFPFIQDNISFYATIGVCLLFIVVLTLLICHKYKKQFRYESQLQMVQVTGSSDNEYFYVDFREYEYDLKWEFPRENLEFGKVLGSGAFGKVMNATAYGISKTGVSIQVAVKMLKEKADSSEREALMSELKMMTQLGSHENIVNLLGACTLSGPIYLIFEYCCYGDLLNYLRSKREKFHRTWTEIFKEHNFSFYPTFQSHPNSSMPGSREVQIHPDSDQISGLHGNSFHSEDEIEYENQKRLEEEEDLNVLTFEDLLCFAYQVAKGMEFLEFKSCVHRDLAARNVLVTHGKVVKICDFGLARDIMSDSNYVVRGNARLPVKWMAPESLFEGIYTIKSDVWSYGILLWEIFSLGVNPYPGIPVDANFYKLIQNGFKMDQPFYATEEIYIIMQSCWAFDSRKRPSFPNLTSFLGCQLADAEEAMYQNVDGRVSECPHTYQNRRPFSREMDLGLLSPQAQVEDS

[25] = biological target: Tyrosine-protein kinase Yes (Homo sapiens, UniProt P07947); assay: Inhibition of YES
[26] = biological target: Proto-oncogene tyrosine-protein kinase ROS (Homo sapiens, UniProt P08922); assay: Inhibition of ROS
Proto-oncogene tyrosine-protein kinase ROS, sequence (P08922 whole entry): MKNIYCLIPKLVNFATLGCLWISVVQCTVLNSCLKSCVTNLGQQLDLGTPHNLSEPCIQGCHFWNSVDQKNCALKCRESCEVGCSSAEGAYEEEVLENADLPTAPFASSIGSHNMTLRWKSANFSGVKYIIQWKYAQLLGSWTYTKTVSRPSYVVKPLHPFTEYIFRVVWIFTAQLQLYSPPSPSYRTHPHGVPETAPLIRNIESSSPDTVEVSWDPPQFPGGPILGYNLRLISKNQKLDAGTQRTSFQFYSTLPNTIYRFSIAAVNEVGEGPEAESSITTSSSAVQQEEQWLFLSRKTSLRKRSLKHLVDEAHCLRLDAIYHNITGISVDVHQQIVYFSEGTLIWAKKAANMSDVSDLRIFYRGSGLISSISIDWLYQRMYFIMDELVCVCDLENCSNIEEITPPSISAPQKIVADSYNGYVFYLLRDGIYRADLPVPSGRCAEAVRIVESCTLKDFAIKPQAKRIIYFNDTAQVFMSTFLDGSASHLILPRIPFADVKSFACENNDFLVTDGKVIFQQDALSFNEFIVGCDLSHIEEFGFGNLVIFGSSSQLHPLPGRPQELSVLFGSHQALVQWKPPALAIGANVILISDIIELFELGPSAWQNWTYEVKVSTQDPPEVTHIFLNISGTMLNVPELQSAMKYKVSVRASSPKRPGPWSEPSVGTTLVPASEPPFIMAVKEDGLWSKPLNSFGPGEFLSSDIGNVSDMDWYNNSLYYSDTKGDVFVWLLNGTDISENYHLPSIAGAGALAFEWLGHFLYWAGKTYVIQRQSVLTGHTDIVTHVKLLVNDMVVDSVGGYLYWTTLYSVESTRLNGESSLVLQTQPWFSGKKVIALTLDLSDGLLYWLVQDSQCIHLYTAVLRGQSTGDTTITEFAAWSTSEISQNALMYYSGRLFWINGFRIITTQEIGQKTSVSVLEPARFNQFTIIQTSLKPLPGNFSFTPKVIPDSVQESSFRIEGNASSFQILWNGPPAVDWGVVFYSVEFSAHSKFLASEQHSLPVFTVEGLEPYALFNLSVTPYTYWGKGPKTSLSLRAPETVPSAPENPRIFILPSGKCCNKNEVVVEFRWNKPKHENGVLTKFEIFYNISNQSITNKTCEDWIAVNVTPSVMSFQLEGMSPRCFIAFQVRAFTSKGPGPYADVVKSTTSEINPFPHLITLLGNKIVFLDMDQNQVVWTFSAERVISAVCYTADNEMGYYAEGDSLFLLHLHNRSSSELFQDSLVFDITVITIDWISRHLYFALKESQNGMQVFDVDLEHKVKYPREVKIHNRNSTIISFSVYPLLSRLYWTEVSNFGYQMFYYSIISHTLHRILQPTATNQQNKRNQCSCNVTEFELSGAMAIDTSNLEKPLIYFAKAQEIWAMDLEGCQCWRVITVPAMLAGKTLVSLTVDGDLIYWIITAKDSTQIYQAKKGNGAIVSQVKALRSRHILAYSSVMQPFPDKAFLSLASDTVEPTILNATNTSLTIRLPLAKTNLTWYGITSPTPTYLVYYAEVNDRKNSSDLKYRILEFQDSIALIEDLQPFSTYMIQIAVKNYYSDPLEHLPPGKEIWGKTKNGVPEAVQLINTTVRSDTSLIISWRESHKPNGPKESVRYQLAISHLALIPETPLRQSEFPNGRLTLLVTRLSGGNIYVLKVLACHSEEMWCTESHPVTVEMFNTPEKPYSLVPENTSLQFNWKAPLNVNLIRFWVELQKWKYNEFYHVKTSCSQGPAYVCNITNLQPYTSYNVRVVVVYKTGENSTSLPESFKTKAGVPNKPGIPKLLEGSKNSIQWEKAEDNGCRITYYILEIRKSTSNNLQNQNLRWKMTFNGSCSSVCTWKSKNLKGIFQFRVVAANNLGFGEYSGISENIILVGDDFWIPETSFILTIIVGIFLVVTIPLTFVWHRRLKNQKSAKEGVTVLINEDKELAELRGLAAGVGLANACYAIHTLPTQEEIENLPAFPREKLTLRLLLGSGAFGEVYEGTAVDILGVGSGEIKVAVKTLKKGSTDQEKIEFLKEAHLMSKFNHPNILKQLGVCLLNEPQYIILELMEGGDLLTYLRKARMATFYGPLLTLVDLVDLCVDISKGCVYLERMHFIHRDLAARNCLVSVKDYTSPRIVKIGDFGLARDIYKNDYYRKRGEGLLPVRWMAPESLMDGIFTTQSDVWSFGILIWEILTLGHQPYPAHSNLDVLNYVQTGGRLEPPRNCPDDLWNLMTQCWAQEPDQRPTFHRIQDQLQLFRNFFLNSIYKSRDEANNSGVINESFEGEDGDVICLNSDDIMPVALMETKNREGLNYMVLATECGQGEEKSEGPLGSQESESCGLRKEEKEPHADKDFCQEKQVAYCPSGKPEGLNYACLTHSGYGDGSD

[27] = biological target: Tyrosine-protein kinase Lyn (Homo sapiens, UniProt P07948); assay: Inhibition of LYNA
[28] = biological target: Mitogen-activated protein kinase 14 (Homo sapiens, UniProt Q16539); assay: Inhibition of P38alpha
[29] = biological target: Tyrosine-protein kinase HCK (Homo sapiens, UniProt P08631); assay: Inhibition of HCK
[30] = biological target: Mitogen-activated protein kinase 8 (Homo sapiens, UniProt P45983); assay: Inhibition of JNK1
[31] = biological target: Tyrosine-protein kinase ZAP-70 (Homo sapiens, UniProt P43403); assay: Inhibition of ZAP70
[32] = biological target: Ribosomal protein S6 kinase alpha-1 (Homo sapiens, UniProt Q15418); assay: Inhibition of RSK1
[33] = Octanol-phosphate buffer partition coefficient, log D of the compound at pH 7.4 by HPLC analysis; format: physicochemical
[34] = biological target: Glycogen synthase kinase-3 beta (Homo sapiens, UniProt P49841); assay: Inhibition of GSK3-beta
[35] = biological target: Mast/stem cell growth factor receptor Kit (Homo sapiens, UniProt P10721); assay: Inhibition of c-Kit after 45 mins by radiometric phosphate incorporation assay
[36] = biological target: Interleukin-1 receptor-associated kinase 4 (Homo sapiens, UniProt Q9NWZ3); assay: Inhibition of IRAK4
Ephrin type-B receptor 2 = Ephrin type-B receptor 2 (Homo sapiens, UniProt P29323); assay: Inhibition of EPHB2
[37] = biological target: Calcium/calmodulin-dependent protein kinase type 1D (Homo sapiens, UniProt Q8IU85); assay: Inhibition of CAMK1D
Calcium/calmodulin-dependent protein kinase type 1D, sequence (Q8IU85 whole entry): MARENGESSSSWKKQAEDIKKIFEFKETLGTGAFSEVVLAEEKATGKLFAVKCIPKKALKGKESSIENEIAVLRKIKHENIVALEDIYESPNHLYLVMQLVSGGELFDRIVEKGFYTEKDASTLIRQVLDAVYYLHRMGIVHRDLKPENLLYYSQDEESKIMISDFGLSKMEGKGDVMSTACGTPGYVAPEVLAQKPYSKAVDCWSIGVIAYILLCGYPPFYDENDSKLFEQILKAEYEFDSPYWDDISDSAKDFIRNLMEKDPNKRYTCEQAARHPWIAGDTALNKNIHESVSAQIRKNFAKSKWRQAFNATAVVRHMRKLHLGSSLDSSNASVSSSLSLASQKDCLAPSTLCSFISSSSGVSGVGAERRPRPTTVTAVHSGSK

CNc1cncc(-c2c[nH]c(=O)c(NC(=O)c3ccc(N4CCC[C@H]4CN4CCCC4)cc3)c2)n1
Ki [1]: > 1000 nM | Ki [2]: > 1000 nM | Ki [3]: > 1000 nM | Ki [4]: > 1000 nM | Ki (Aurora kinase A): > 1000 nM | Ki [5]: > 1000 nM | Papp B→A at 2 h [6]: 32.4 ×10⁻⁶ cm/s | Ki [7]: > 1000 nM | Ki [8]: > 1000 nM | Ki [9]: > 1000 nM | Ki [10]: > 1000 nM | Ki [11]: > 2000 nM | Ki (Angiopoietin-1 receptor): > 1000 nM | Ki [12]: > 2000 nM | Ki [13]: > 1000 nM | Ki [14]: > 2000 nM | Ki [15]: > 1000 nM | Ki [16]: > 1000 nM | Ki [17]: > 1000 nM | Ki [18]: > 1000 nM | Ki [19]: > 1000 nM | Ki [20]: > 1000 nM | Ki [21]: > 1000 nM | Ki [22]: > 1000 nM | Ki [23]: > 1000 nM | Ki [24]: 20 nM | Ki [25]: > 1000 nM | Ki [26]: > 1000 nM | Ki [27]: > 1000 nM | Ki [28]: > 1000 nM | Ki [29]: > 1000 nM | Ki [30]: > 1000 nM | Ki [31]: > 2000 nM | Ki [32]: > 1000 nM | logD [33]: 2.8 | Ki [34]: > 1000 nM | Ki [35]: 200 nM | Ki [36]: > 1000 nM | Ki (Ephrin type-B receptor 2): > 1000 nM | Ki [37]: > 1000 nM
